Read-outs that look alike come from different tables or passages of the source. *1 amine or outer side, *2 acyl side, *3 side chain or, on linkers, in order; H or OH if unused. Where a SMILES comes first, the peptide text is derived from it. Bridges are numbered along the chain shown (N, C = ends). [ ]: non-standard residue; d: D form. 2Nal = N[C@@H](Cc1ccc2ccccc2c1)C(=O)O; AEF = NCCOc1ccc(C[C@H](N)C(=O)O)cc1; X1 = O=C(Cc1ccc(CN[*:1])cc1)[*:2]; 3Pal = N[C@@H](Cc1cccnc1)C(=O)O; αMeL = CC(C)C[C@](C)(N)C(=O)O; CH2COCH2 = O=C(C[*:1])C[*:2]; Dab = NCC[C@H](N)C(=O)O
How the values were obtained:
[1] = target: T1, human IL-23R (Homo sapiens, UniProt Q5VWK5); test: Binding assay: displacement of fluorophore (TAMRA)-labelled reference compound from human IL-23R (BRET, Nluc-IL23R fusion protein membranes); details: for Emax: read-out: % displacement (hIL-23R binding)
T1 construct: Nanoluc luciferase (Nluc); secretion signal encoded by the plasmid (not specified); expressed in transfected cells; crude membranes used in the assay
T1 sequence (Q5VWK5 22-629): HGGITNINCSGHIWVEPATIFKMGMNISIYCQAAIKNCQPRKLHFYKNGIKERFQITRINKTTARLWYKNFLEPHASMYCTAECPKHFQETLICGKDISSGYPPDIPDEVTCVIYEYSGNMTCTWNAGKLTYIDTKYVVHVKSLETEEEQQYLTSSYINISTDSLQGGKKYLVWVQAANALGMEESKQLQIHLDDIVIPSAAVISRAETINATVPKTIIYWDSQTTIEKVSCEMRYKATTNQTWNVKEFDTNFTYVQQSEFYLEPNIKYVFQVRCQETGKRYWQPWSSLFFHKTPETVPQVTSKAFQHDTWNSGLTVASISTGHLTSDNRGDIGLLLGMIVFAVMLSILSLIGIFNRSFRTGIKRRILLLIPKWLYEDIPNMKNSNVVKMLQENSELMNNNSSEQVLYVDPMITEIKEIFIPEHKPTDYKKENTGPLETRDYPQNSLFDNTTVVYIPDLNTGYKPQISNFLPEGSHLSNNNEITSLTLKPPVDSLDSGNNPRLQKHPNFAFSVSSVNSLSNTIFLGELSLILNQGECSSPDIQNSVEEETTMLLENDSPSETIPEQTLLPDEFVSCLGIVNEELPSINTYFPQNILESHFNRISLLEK

[2] = Peptide stability in simulated gastric fluid (SGF); format: in vitro ADME; details: pig, pH 1.2, pepsin, 37° C.
Experimental: (§1) SGF and SIF were prepared based on the United States Pharmacopeia specifications (Test Solutions, United States Pharmacopeia 35, NF 30, 2012). SGF was prepared by dissolving sodium chloride (0.2 g) in 50 mL of water. A volume of 0.7 mL of 10 M HCl was added to adjust the pH of the solution to 1.2 and the volume made up to 100 mL with water. 64 mg porcine pepsin (P7125, Sigma Aldrich) was gently dissolved into 20 mL preheated (37° C.) solution (3.2 g/L) immediately prior to the incubation. SIF was prepared by dissolving monobasic potassium phosphate (0.68 g) in 50 mL of water and adjusting the pH to 6.8 with 1 M NaOH. The volume was subsequently made up to 100 mL with water. 200 mg porcine pancreatin (P1625, Sigma Aldrich) was gently dissolved into 20 mL preheated (37° C.) solution (10 g/L) immediately prior to the incubation.
(§2) To initiate the incubations, 20 μL of peptide stock solution in 50% v/v isopropanol was deposited at the bottom of a well plate and 580 μL matrix solution was added to give a final substrate concentration of 10 μM. The incubation was performed at 37° C. with gentle shaking. 70 μL aliquots were removed at 0, 1 and 4 hours and quenched into 210 μL ice-cold precipitant solution (95% v/v acetonitrile with 0.1% v/v formic acid). After the last timepoint, the sampling plate was mixed for 10 min on a shaking table and centrifuged 10 min at 2200 g. 70 μL resulting supernatant was diluted with 150 μL water, mixed and centrifugated before analysis by liquid chromatography high resolution mass spectrometry. The zero sample was reinjected after the 4-hour sample to confirm that no drift in instrument sensitivity had occurred during the run. Percent remaining at each timepoint was calculated relative to timepoint zero based on absolute peak areas.
(§3) Compounds with a SGF stability (after 4 h) above 70% are considered highly SGF stable. Compounds with a SGF stability (after 4 h) between 30-70% (including 30% and 70%) are considered moderately SGF stable. Compounds with a SGF stability (after 4 h) below 30% are considered SGF unstable. SGF stability values above 100% are due to assay uncertainty and indicate the compound has not degraded.

[3] = tested on: IL-23 mediated STAT3 signalling (DB cells); test: Functional inhibition of IL-23 mediated STAT3 signalling (phospho-STAT3 Tyr705) in DB cells; format: cell-based, human; details: for hIL-23 (pSTAT3) antagonist % inhibition: Table 3-2, maximal inhibitory response, EC80 of hIL-23
Method in brief: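 DB cells preincubated 15 min with inhibitor at 37° C, 5% CO2, then stimulated 90 min with hIL-23 at EC80. Lysate phospho-STAT3 measured by MSD electrochemiluminescence. Signal normalized to IL-23-alone and buffer wells; IC50 and maximal inhibition from concentration–response curves.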

[4] = Peptide stability in simulated intestinal fluid (SIF); format: in vitro ADME; details: pig, simulated intestinal fluid, SIF, pH 6.8, pancreatin, 37° C., 10 μM
Experimental: as §1, §2
as §3, with “SIF” for “SGF”

[5] = EC80 of hIL-23, read-out: IC50 (pSTAT3)
[6] = Table 3-2, EC80 of hIL-23, read-out: hIL-23 (pSTAT3) antagonist IC50

| Structure (SMILES) | Emax [1] | remaining at 4 h, 10 µM [2] | IC50 [3, 5] | IC50 [3, 6] | IC50 [1] | remaining at 1 h, 10 µM ([2]; 1 h) | remaining at 1 h, 10 µM ([4]; 1 h) | remaining at 4 h, 10 µM ([4]; 4 h, read-out: SIF (% remaining 4 h)) | hIL-23 (pSTAT3) antagonist % inhibition [3] |
| --- | --- | --- | --- | --- | --- | --- | --- | --- | --- |
| CNC(=O)[C@H](Cc1cccnc1)NC(=O)[C@H](Cc1c[nH]cn1)NC(=O)[C@@H]1CCC(=O)NCc2ccc(cc2)CC(=O)N[C@@H](CO)C(=O)N[C@H]2CCC(=O)NCC[C@H](NC(=O)[C@H](CCC(N)=O)NC(=O)[C@H](Cc3c[nH]c4ccccc34)NC2=O)C(=O)N[C@@H](Cc2ccc(OCCN)cc2)C(=O)N[C@@H](Cc2ccc3ccccc3c2)C(=O)N[C@@](C)(CC(C)C)C(=O)N1 [Compound 34, [4-Aminomethyl-phenylacetyl](1c)*SE(2c)WQ[Dab](2c)[Y(2-aminoethoxy)][2-Nal][2-Me-Leu]E(1c)H[3-(3-Pyridyl)-Ala]-[NHMe]] ([X1]SEWQ[Dab][AEF][2Nal][αMeL]EH[3Pal]-NHMe; lactam 3-6, N-10) | 90% | 95% | – | – | – | – | – | – | 102% |
| CNC(=O)[C@H](Cc1cccnc1)NC(=O)[C@H](CCN)NC(=O)[C@@H]1CCC(=O)NCc2ccc(cc2)CC(=O)N[C@@H](C)C(=O)N[C@H]2CCC(=O)NCC[C@H](NC(=O)[C@H](CCC(N)=O)NC(=O)[C@H](Cc3c[nH]c4ccccc34)NC2=O)C(=O)N[C@@H](CCc2ccccc2)C(=O)N[C@@H](Cc2ccc3ccccc3c2)C(=O)NC(C)(C)C(=O)N1 [Compound 41, [4-Aminomethyl-phenylacetyl](1c)*AE(2c)WQ[Dab](2c)[hPhe][2-Nal][Aib]E(1c)[Dab][3-(3-Pyridyl)-Ala]-[NHMe]] | 104% | 102% | – | – | – | – | – | – | – |
| CNC(=O)[C@H](Cc1cccnc1)NC(=O)[C@H](CCN)NC(=O)[C@@H]1CCC(=O)NCc2ccc(cc2)CC(=O)N[C@@H](C)C(=O)N[C@H]2CCC(=O)NCC[C@H](NC(=O)[C@H](CCC(N)=O)NC(=O)[C@H](Cc3c[nH]c4ccccc34)NC2=O)C(=O)N[C@@H](Cc2ccc(OCCN)cc2)C(=O)N[C@@H](Cc2c[nH]c3ncccc23)C(=O)NC(C)(C)C(=O)N1 [Compound 44, [4-Aminomethyl-phenylacetyl](1c)*AE(2c)WQ[Dab](2c)[Y(2-aminoethoxy)][7-AzaTrp][Aib]E(1c)[Dab][3-(3-Pyridyl)-Ala]-[NHMe]] | – | – | – | – | – | – | 78% | 91% | – |
| CC(=O)N[C@H]1CCCCNC(=O)CC[C@@H](C(=O)N[C@@H](CCN)C(=O)N[C@@H](Cc2cccnc2)C(N)=O)NC(=O)[C@](C)(CC(C)C)NC(=O)[C@H](Cc2ccc3ccccc3c2)NC(=O)[C@H](Cc2ccc(OCCN)cc2)NC(=O)[C@@H]2CSCC(=O)CSC[C@H](NC(=O)[C@H]([C@@H](C)O)NC1=O)C(=O)N[C@@H](Cc1c[nH]c3ccccc13)C(=O)N[C@@H](CCC(N)=O)C(=O)N2 [Ref 155, [Ac]-K(1c)TC(2a)WQC(2a)[Y(2-aminoethoxy)][2-Nal][2-Me-Leu]E(1c)[Dab][3-(3-Pyridyl)-Ala]-[NH2], reference compound] (Ac-KTCWQC[AEF][2Nal][αMeL]E[Dab][3Pal]-NH2; lactam 1-10; linker 3-6 via CH2COCH2) | 97% | – | – | – | – | – | – | – | 100% |

The next lines start with results.

| Emax [1] | remaining at 4 h, 10 µM [2] | IC50 [3, 5] | IC50 [3, 6] | IC50 [1] | remaining at 1 h, 10 µM ([2]; 1 h) | remaining at 1 h, 10 µM ([4]; 1 h) | remaining at 4 h, 10 µM ([4]; 4 h, read-out: SIF (% remaining 4 h)) | Structure (SMILES) | hIL-23 (pSTAT3) antagonist % inhibition [3] |
| --- | --- | --- | --- | --- | --- | --- | --- | --- | --- |
| 99% | 104% | 1.7 nM | 1.7 nM | – | – | – | – | CC(C)C[C@]1(C)NC(=O)[C@H](Cc2ccc3ccccc3c2)NC(=O)[C@H](Cc2ccc(OCCN)cc2)NC(=O)[C@@H]2CCNC(=O)CC[C@H](NC(=O)[C@H](CO)NC(=O)Cc3ccc(cc3)CNC(=O)CC[C@@H](C(=O)N[C@@H](CCN)C(=O)N[C@@](C)(Cc3cccnc3)C(N)=O)NC1=O)C(=O)N[C@@H](Cc1c[nH]c3ccccc13)C(=O)N[C@@H](CCC(N)=O)C(=O)N2 [Compound 3, [4-Aminomethyl-phenylacetyl](1c)*SE(2c)WQ[Dab](2c)[Y(2-aminoethoxy)][2-Nal][2-Me-Leu]E(1c)[Dab][2-Me-3-(3-Pyridyl)-Ala]-[NH2]] | 98% |
| 111% | 103% | 6.5 nM | 6.5 nM | 0.17 nM | – | – | – | CC(C)C[C@]1(C)NC(=O)[C@H](Cc2ccc3ccccc3c2)NC(=O)[C@H](Cc2ccc(OCCN)cc2)NC(=O)[C@@H]2CCNC(=O)CC[C@H](NC(=O)[C@H](CO)NC(=O)Cc3ccc(cc3)CNC(=O)CC[C@@H](C(=O)N[C@@H](CCN)C(=O)N(C)[C@@H](Cc3cccnc3)C(N)=O)NC1=O)C(=O)N[C@@H](Cc1c[nH]c3ccccc13)C(=O)N[C@@H](CCC(N)=O)C(=O)N2 [Compound 4, [4-Aminomethyl-phenylacetyl](1c)*SE(2c)WQ[Dab](2c)[Y(2-aminoethoxy)][2-Nal][2-Me-Leu]E(1c)[Dab][N—Me-3-(3-Pyridyl)-Ala]-[NH2]] | 100% |
| 104% | – | – | 3.5 nM | – | 94% | – | – | CC(C)C[C@]1(C)NC(=O)[C@H](Cc2ccc3ccccc3c2)NC(=O)[C@H](Cc2ccc(OCCN)cc2)NC(=O)[C@@H]2CCNC(=O)CC[C@H](NC(=O)[C@H](CO)NC(=O)Cc3ccc(cc3)CNC(=O)CC[C@@H](C(=O)N[C@@H](CCN)C(=O)N[C@@H](Cc3c[nH]cn3)C(=O)N[C@@H](Cc3cccnc3)C(N)=O)NC1=O)C(=O)N[C@@H](Cc1c[nH]c3ccccc13)C(=O)N[C@@H](CCC(N)=O)C(=O)N2 [Compound 12, [4-Aminomethyl-phenylacetyl](1c)*SE(2c)WQ[Dab](2c)[Y(2-aminoethoxy)][2-Nal][2-Me-Leu]E(1c)[Dab]H[3-(3-Pyridyl)-Ala]-[NH2]] ([X1]SEWQ[Dab][AEF][2Nal][αMeL]E[Dab]H[3Pal]-NH2; lactam 3-6, N-10) | 100% |
| 95% | 102% | – | 0.069 nM | – | – | – | – | CNC(=O)[C@H](Cc1cccnc1)NC(=O)[C@H](COC)NC(=O)[C@@H]1CCC(=O)NCc2ccc(cc2)CC(=O)N[C@@H](CO)C(=O)N[C@H]2CCC(=O)NCC[C@H](NC(=O)[C@H](CCC(N)=O)NC(=O)[C@H](Cc3c[nH]c4ccccc34)NC2=O)C(=O)N[C@@H](Cc2ccc(OCCN)cc2)C(=O)N[C@@H](Cc2ccc3ccccc3c2)C(=O)N[C@@](C)(CC(C)C)C(=O)N1 [Compound 37, [4-Aminomethyl-phenylacetyl](1c)*SE(2c)WQ[Dab](2c)[Y(2-aminoethoxy)][2-Nal][2-Me-Leu]E(1c)[Ser(OMe)][3-(3-Pyridyl)-Ala]-[NHMe]] | 100% |
